Data taken from US20050150764A1 (priority 2001, published 2005).

How the values were obtained:
[1] = test system: caterpillars of the army worm (Spodoptera exigua); experiment: Spodoptera exigua test (Example D); format: in vivo; details: 500 ppm, after 6 days, cabbage leaves dipped
Description: (§1) Spodoptera exigua Test [table] To produce a suitable preparation of active compound, 1 part by weight of active compound is mixed with the stated amounts of solvent and emulsifier, and the concentrate is diluted with emulsifier-containing water to the desired concentration. Cabbage leaves (Brassica oleracea) are treated by being dipped into the preparation of active compound at the desired concentration and are populated with caterpillars of the army worm (Spodoptera exigua) while the leaves are still moist. After the desired period of time, the kill in % is determined. 100% means that all of the caterpillars have been killed: 0% denotes that no caterpillars have been killed.

[2] = test system: caterpillars of the cabbage moth (Plutella xylostella); experiment: Plutella test (Example C); format: in vivo; details: 500 ppm, after 6 days, cabbage leaves dipped
Description: as §1, with “Plutella test” for “Spodoptera exigua Test”, “cabbage moth (Plutella xylostella)” for “army worm (Spodoptera exigua)”

[3] = test system: Heliothis virescens caterpillars; experiment: Heliothis virescens test (Example A); format: in vivo; details: 500 ppm, after 6 days, soya shoots dipped
Description: Heliothis virescens Test [table] To produce a suitable preparation of active compound, 1 part by weight of active compound is mixed with the stated amounts of solvent and emulsifier, and the concentrate is diluted with emulsifier-containing water to the desired concentration. Soya shoots (Glycine max) are treated by being dipped into the preparation of active compound at the desired concentration and are populated with Heliothis virescens caterpillars while the leaves are still moist. After the desired period of time, the kill in % is determined. 100% means that all of the caterpillars have been killed: 0% denotes that no caterpillars have been killed.

[4] = logP (pH 2)
[5] = not given; remark: listed apart in the source
[6] = test system: caterpillars of the army worm (Spodoptera frugiperda); experiment: Activity duration test: Spodoptera frugiperda (Example G); format: in vivo; details: 20 ppm, cotton plants sprayed
Description: (§2) Activity Duration Test: Spodoptera frugiperda [table] To produce a suitable preparation of active compound, 1 part by weight of active compound is mixed with the stated amounts of solvent and emulsifier, and the concentrate is diluted with emulsifier-containing water to the desired concentration. Cotton plants (Gossypium hirsutum) are sprayed with a preparation of the active compound in the desired concentration. After the number of days indicated, caterpillars of the army worm (Spodoptera frugiperda) are placed onto the treated leaves in infection chambers. After the desired period of time, the kill in % is determined. 100% means that all of the caterpillars have been killed: 0% denotes that no caterpillars have been killed.

[7] = test system: Heliothis virescens caterpillars; experiment: Activity duration test: Heliothis virescens (Example F); format: in vivo; details: 20 ppm, cotton plants sprayed
Description: as §2, with “Heliothis virescens” for “Spodoptera frugiperda”, “indicated, Heliothis virescens” for “indicated,”, “caterpillars” for “caterpillars of the army worm (Spodoptera frugiperda)”

| SMILES | melting point [°C] | logP [4] | logP (pH 2)/ m.p. [° C.] (logP part) [5] | kill [1] [%] | kill [2] [%] | kill [3] [%] | Degree of kill in % ([6]; infection after 5 days) [%] | Degree of kill in % ([6]; infection after 12 days) [%] | Degree of kill in % ([6]; infection after 19 days) [%] | Degree of kill in % ([6]; infection after 26 days) [%] | kill ([7]; infection after 5 days) [%] | kill ([7]; infection after 12 days) [%] | kill ([7]; infection after 19 days) [%] | kill ([7]; infection after 26 days) [%] |
| --- | --- | --- | --- | --- | --- | --- | --- | --- | --- | --- | --- | --- | --- | --- |
| O=C(Nc1ccc(C(F)(F)F)cc1)N1CCC(n2cc(Cl)cn2)C(c2cccc(Br)c2)=N1 (centres unmarked) [Example 13] |  |  | 4.77/196 | 100 | 100 | 100 |  |  |  |  |  |  |  |  |
| O=C(Nc1ccc(C(F)(F)F)cc1)N1CCC(n2cc(Cl)cn2)C(c2cccc(C(F)(F)F)c2)=N1 (centres unmarked) [Example 14] |  |  | 4.79/176 | 100 | 100 | 100 | 90 | 80 | 70 | 90 | 100 | 100 | 100 | 100 |
| O=C(Nc1ccc(SC(F)(F)F)cc1)N1CCC(n2cc(Cl)cn2)C(c2cccc(F)c2)=N1 (centres unmarked) [Example 15] |  |  | 4.81/166 | 100 | 100 | 100 | 90 | 90 | 80 | 90 |  |  |  |  |

Further lines, with some results ahead:

| melting point [°C] | logP [4] | logP (pH 2)/ m.p. [° C.] (logP part) [5] | SMILES | kill [1] [%] | kill [2] [%] | kill [3] [%] | Degree of kill in % ([6]; infection after 5 days) [%] | Degree of kill in % ([6]; infection after 12 days) [%] | Degree of kill in % ([6]; infection after 19 days) [%] | Degree of kill in % ([6]; infection after 26 days) [%] | kill ([7]; infection after 5 days) [%] | kill ([7]; infection after 12 days) [%] | kill ([7]; infection after 19 days) [%] | kill ([7]; infection after 26 days) [%] |
| --- | --- | --- | --- | --- | --- | --- | --- | --- | --- | --- | --- | --- | --- | --- |
| 216 | 4.08 |  | N#Cc1cccc(C2=NN(C(=O)Nc3ccc(OC(F)(F)F)cc3)CCC2n2cc(Cl)cn2)c1 (centres unmarked) [Example 1, 3-(3-cyanophenyl)-4-(4-chloropyrazol-1-yl)-1-(4-trifluoromethoxyphenylamino)carbonyl-1,4,5,6-tetrahydropyridazine] | 100 | 100 | 100 |  |  |  |  |  |  |  |  |
|  |  | 4.44/182 | N#Cc1cccc(C2=NN(C(=O)Nc3ccc(SC(F)(F)F)cc3)CCC2n2cc(Cl)cn2)c1 (centres unmarked) [Example 17] | 100 | 100 | 100 |  |  |  |  |  |  |  |  |
| 171 | 2.29 |  | N#Cc1cccc(C2=NNCCC2n2cc(Cl)cn2)c1 (centres unmarked) [II-1, 3-(3-cyanophenyl)-4-(4-chloropyrazol-1-yl)-1,4,5,6-tetrahydropyridazine] |  |  |  |  |  |  |  |  |  |  |  |
